This passage reports IC50 results from US10730868B2, “Bicyclic heteroaryl substituted compounds” (BRISTOL-MYERS SQUIBB COMPANY, priority 2016, dated 2020).

Molecules are shown by their SMILES. Where two headings read alike, the source gives them in different places.

In this experiment the target is PAR4 (Homo sapiens (Human), UniProt Q96RI0). Briefly: PAR4 FLIPR assay (antagonism of agonist-peptide-induced calcium mobilization). Type of experiment: cell-based. Conditions: PAR4-expressing HEK293 cells, read-out: PAR4 FLTPR assay (IC50). An excerpt: The Fluorometric Imaging Plate Reader (FLIPR) assay is an exemplary in vitro assay for measuring the activity of the PAR4 antagonists of the present invention. In this assay, intracellular calcium mobilization is induced in PAR4 expressing cells by a PAR4 agonist and calcium mobilization is monitored.
PAR4, sequence (Q96RI0 18-385): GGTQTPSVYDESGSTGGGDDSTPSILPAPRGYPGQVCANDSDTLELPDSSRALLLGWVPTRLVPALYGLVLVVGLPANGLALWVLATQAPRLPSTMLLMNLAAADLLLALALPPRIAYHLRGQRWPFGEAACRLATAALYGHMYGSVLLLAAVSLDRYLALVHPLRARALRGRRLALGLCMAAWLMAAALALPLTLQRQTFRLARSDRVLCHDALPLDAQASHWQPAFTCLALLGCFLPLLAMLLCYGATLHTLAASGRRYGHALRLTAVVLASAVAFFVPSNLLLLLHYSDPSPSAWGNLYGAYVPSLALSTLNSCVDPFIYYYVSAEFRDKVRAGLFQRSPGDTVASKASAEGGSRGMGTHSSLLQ
HEK293 cells stably expressing PAR4 were generated by a standard method of transfection of human PAR4 (F2R23) cDNA expression vector and selected based on PAR4 protein expression or mRNA expression. […] These cells also express endogenous PAR1 and can elicit calcium signal upon stimulation with PAR1 agonist peptide. Therefore, the same cells were also used to determine selectivity against PAR1 and agonist activity for both receptors. Cells from HEK293 PAR4 Clone 1.2A (BMS Arctic ID 383940) were propagated and used for calcium mobilization studies.
FLIPR-based calcium mobilization assay in HEK293 cells was used to measure PAR4 antagonism agonism, and selectivity against PAR1. The activity of the PAR4 antagonists of the present invention were tested in PAR4 expressing cells by monitoring H-Ala-Phe(4-F)-[…]NH2-induced intracellular calcium mobilization. Counter screens for agonist activity and PAR1 antagonist activity were also performed. Briefly, PAR/PAR4-expressing HEK293 cells were grown in DMEM (Life Technology, Grand Island, N.Y.) containing 10% heat-inactivated FBS, 1% Penicillin-Streptomycin, 10 μg/mL blasticidin, and 100 μg/mL Zeocin at 37° C. with 5% CO2. Cells were plated overnight prior to the experiment in a black 384-well Purecoat Amine clear bottom plate (Becton Dickinson Biosciences, San Jose, Calif.) at 10,000 cells/well in 30 μL growth medium and incubated in a humidified chamber at 37° C. with 5% CO2 overnight. Prior to compound addition, the cell medium was replaced with 40 μL of 1× calcium and magnesium-containing Hank's Balanced Saline Solution (HBSS) (with 20 mM HEPES) and 1:1000 diluted fluorescent calcium indicator (Codex Biosolutions, Gaithersburg, Md.). After a 30 minute incubation period at 37° C. and a further 30 minute incubation and equilibration period at room temperature, 20 μL test compound (diluted in 1×HBSS buffer) was added at various concentrations at 0.17% dimethyl sulfoxide (DMSO) final concentration. Changes in fluorescence intensity were measured using a Functional Drug Screening System (FDSS, Hamamatsu, Japan) to determine agonist activities. The cells were then incubated for 30 minutes at room temperature followed by addition of 20 μL of agonist peptide for antagonist activity measurement. […] Compound potency was derived from 11-point concentration-response curves.

Setting [1] is: H-Ala-Phe(4-F)-[…]NH2-induced intracellular calcium mobilization.
The mark [2] stands for this setting: H-Ala-Phe(4-F)-Pro-Gly-Trp-Leu-Val-Lys-Asn-Gly-NH2-induced intracellular calcium mobilization.

For the compound `COc1cnc2c(-c3nc4cc(F)c(O[C@H]5CCC[C@H]5OC(=O)Nc5cnc(C)nc5)cc4s3)cc(C)cc2n1` (racemic) [Example 35], the IC50 under setting [1] came out at 2.5 nM.

Regarding `COc1cnc2c(-c3nc4cc(F)c(O[C@@H]5CCCC[C@@H]5OC(=O)Nc5ccncc5)cc4s3)cc(C)cc2n1` (racemic) [Example 56, rac-cis-2-((5-fluoro-2-(2-methoxy-7-methylquinoxalin-5-yl)benzo[d]thiazol-6-yl)oxy) cyclohexyl pyridin-4-ylcarbamate], the 50% inhibitory concentration (IC50) under setting [1] came out at 1.8 nM.

Take `COc1ccc(NC(=O)O[C@H]2CC[C@H]2Oc2cc3sc(-c4cc(C)cc5nc(OC)cnc45)nc3cc2F)cn1` [Example 72]: the IC50 under setting [2] worked out at 1.1 nM.

As to `COc1cnc2c(-c3nc4cc(F)c(O[C@H]5CC(F)(F)CC[C@H]5OC(=O)Nc5cnc(OCCO)nc5)cc4s3)cc(Cl)cc2c1` [Example 16, (1R,2S)-2-((2-(6-chloro-3-methoxyquinolin-8-vi)-5-fluorobenzo[d]thiazol-6-yl)oxy)-4,4-difluorocyclohexyl (2-(2-hydroxyethoxy)pyrimidin-5-yl)carbamate], the IC50 under setting [2] was found to be 1.3 nM.

With `COc1cnc2c(-c3nc4cc(F)c(O[C@H]5CC[C@H]5OC(=O)Nc5cnc(OCCO)nc5)cc4s3)cc(C)cc2n1` [Example 64], the IC50 under setting [2] stood at 1.9 nM.

As for `COc1cnc2c(-c3nc4cc(F)c(OC5CC(F)(F)CC[C@@H]5OC(=O)Nc5cncc(C#N)c5)cc4s3)cc(C)cc2n1` (mixture of isomers) [Example 12], the IC50 under setting [1] was determined as 5.7 nM.

For `COc1cnc2c(-c3nc4cc(F)c(O[C@@H]5CC[C@@H]5OC(=O)Nc5cnc(OCCO)nc5)cc4s3)cc(Cl)cc2c1` (racemic) [Example 79], under setting [1], the IC50 came out at 0.9 nM.

On to `COc1cnc2c(-c3nc4cc(F)c(O[C@H]5CC(F)(F)CC[C@H]5OC(=O)Nc5ccc(CCO)nc5)cc4s3)cc(C)cc2n1` [Example 5], for which, under setting [2], the IC50 was 6.8 nM.

Take `COc1cnc2c(-c3nc4cc(F)c(O[C@@H]5COC[C@@H]5OC(=O)Nc5cnc(C)nc5)cc4s3)cc(C)cc2n1` (racemic) [Example 86, rac-cis-4-((5-fluoro-2-(2-methoxy-7-methylquinoxalin-5-yl)benzo[d]thiazol-6-yl)oxy) tetrahydrofuran-3-yl (2-methylpyrimidin-5-yl)carbamate]: the IC50 under setting [1] was determined as 2.7 nM.

Consider `COc1cnc2c(-c3nc4cc(F)c(O[C@H]5CC(F)(F)CC[C@H]5OC(=O)Nc5cnc(OCCO)nc5)cc4s3)cc(C)cc2c1` [Example 15, (1R, 2S)-4,4-difluoro-2-((5-fluoro-2-(3-methoxy-6-methylquinolin-8-yl)benzo[d]thiazol-6-yl)oxy)cyclohexyl (2-(2-hydroxyethoxy)pyrimidin-5-yl)carbamate], for which, under setting [2], the IC50 stood at 0.77 nM.

For the compound `COc1cnc2c(-c3nc4cc(F)c(O[C@@H]5CCC[C@@H]5OC(=O)Nc5cnc(C)nc5)cc4s3)cc(C)cc2n1` [Example 27], the IC50 under setting [2] was determined as 58 nM.

Regarding `COc1cnc2c(-c3nc4cc(F)c(O[C@@H]5CCC(C)(C)[C@@H]5O)cc4s3)cc(C)cc2n1` (racemic) [Example 103, rac-cis-5-((5-fluoro-2-(2-methoxy-7-methyl)quinoxalin-5-yl)benzo[d]thiazol-6-yl)oxy)-2,2-dimethylcyclopentanol], the IC50 under setting [1] stood at 20 nM.

On to `COc1cnc2c(-c3nc4cc(F)c(O[C@@H]5CN(C(=O)C(F)(F)F)CC[C@@H]5OC(=O)Nc5cnc(C)nc5)cc4s3)cc(C)cc2n1` (racemic) [Example 96, rac-cis-3-((5-fluoro-2-(2-methoxy-7-methylquinoxalin-5-yl)benzo[d]thiazol-6-yl)oxy)-1-(2,2,2-trifluoroacetyl)piperidin-4-yl (2-methylpyrimidin-5-yl)carbamate], for which the IC50 under setting [1] came to 44 nM.

As for `COC(=O)c1ncc(NC(=O)O[C@@H]2CCC[C@@H]2Oc2cc3sc(-c4cc(C)cc5nc(OC)cnc45)nc3cc2F)cn1` [Example 51, methyl 5-(((((1R,2S)-2-((5-fluoro-2-(2-methoxy-7-methylquinoxalin-5-yl)benzo[d]thiazol-6-yl)oxy)cyclopentyl)oxy)carbonyl)amino)pyrimidine-2-carboxylate], under setting [2], the IC50 turned out to be 6.8 nM.

With `COc1cnc2c(-c3nc4cc(F)c(O[C@@H]5CC[C@@H]5OC(=O)Nc5cnc(OCCO)nc5)cc4s3)cc(F)cc2c1` [Example 81], the IC50 under setting [2] was found to be 9.2 nM.

Consider `COc1cnc2c(-c3nc4cc(F)c(O[C@@H]5CC[C@@H]5OC(=O)Nc5cnc(OC[C@@H](C)O)nc5)cc4s3)cc(C)cc2n1` (stereo in doubt) [Example 62, cis-2-((5-fluoro-2-(2-methoxy-7-methylquinoxalin-5-yl)benzo[d]thiazol-6-yl)oxy)cyclobutyl (2-((R)-2-hydroxypropoxy)pyrimidin-5-yl)carbamate (Homochiral)], for which the IC50 under setting [2] worked out at 6.9 nM.

For the compound `COc1ccc(NC(=O)O[C@@H]2CCC[C@H]2Oc2cc3sc(-c4cc(C)cc5nc(OC)cnc45)nc3cc2F)cn1` (racemic) [Example 28], under setting [1], the IC50 turned out to be 96 nM.

With `COc1cnc2c(-c3nc4cc(F)c(O[C@H]5CCC[C@H]5OC(=O)NC(C)C)cc4s3)cc(C)cc2n1` [Example 29], the IC50 under setting [2] worked out at 12 nM.

As to `COc1cnc2c(-c3nc4cc(F)c(O[C@@H]5CC[C@@H]5OC(=O)Nc5cnc(C)nc5)cc4s3)cc(C)cc2n1` (racemic) [Example 61, rac-cis-2-((5-fluoro-2-(2-methoxy-7-methylquinoxalin-5-yl)benzo[d]thiazol-6-yl)oxy) cyclobutyl (2-methylpyrimidin-5-yl)carbamate], under setting [1], the IC50 was 1.3 nM.

For the compound `COc1ccc(NC(=O)O[C@@H]2CCCC[C@H]2Oc2cc3sc(-c4cc(C)cc5nc(OC)cnc45)nc3cc2F)cn1` (racemic) [Example 53, rac-trans-2-((5-fluoro-2-(2-methoxy-7-methylquinoxalin-5-yl)benzo[d]thiazol-6-yl)oxy)cyclohexyl (6-methoxypyridin-3-yl)carbamate], under setting [1], the half-inhibitory concentration (IC50) was found to be 94 nM.

Consider `COc1cnc2c(-c3nc4cc(F)c(O[C@H]5CCC[C@H]5OC(=O)Nc5cccnc5)cc4s3)cc(C)cc2n1` (racemic) [Example 38], for which, under setting [1], the IC50 stood at 9.4 nM.

`COc1cnc2c(-c3nc4cc(F)c(O[C@@H]5CC(F)(F)CC[C@@H]5OC(=O)Nc5cnc(C)nc5)cc4s3)cc(C)cc2n1` [Example 13]: under setting [2], the IC50 came to 110 nM.

For `COc1cnc2c(-c3nc4cc(F)c(O[C@H]5CC(F)(F)CC[C@H]5OC(=O)Nc5cnc(C)nc5)cc4s3)cc(Cl)cc2c1` [Example 17, (1R,2S)-2-((2-(6-chloro-3-methoxyquinolin-8-yl)-5-fluorobenzo[d]thiazol-6-yl)oxy)-4,4-difluorocyclohexyl (2-methylpyrimidin-5-yl)carbamate], the IC50 under setting [2] was found to be 4.1 nM.

As for `COc1ccc(NC(=O)O[C@H]2CCC[C@H]2Oc2cc3sc(-c4cc(C)cc5nc(OC)cnc45)nc3cc2F)cn1` [Example 23], the IC50 under setting [2] was 30 nM.

For `COc1cnc2c(-c3nc4cc(F)c(O[C@H]5CCC[C@H]5OC(=O)Nc5ccc(C#N)nc5)cc4s3)cc(C)cc2n1` [Example 36], the IC50 under setting [2] was 2.4 nM.

As for `COc1cnc2c(-c3nc4cc(F)c(O[C@@H]5CC(F)(F)C[C@@H]5OC(=O)Nc5cnc(C)nc5)cc4s3)cc(Cl)cc2c1` (racemic) [Example 98, rac-cis-2-((2-(6-chloro-3-methoxyquinolin-8-yl)-5-fluorobenzo[d]thiazol-6-yl)oxy)-4,4-difluorocyclopentyl (2-methylpyrimidin-5-yl)carbamate], the IC50 under setting [1] is 14 nM.

For `COc1cnc2c(-c3nc4cc(F)c(O[C@@H]5CC[C@@H]5OC(=O)Nc5cnc(C)nc5)cc4s3)cc(Cl)cc2c1` (racemic) [Example 82], under setting [1], the IC50 is 1.1 nM.

With `COc1cnc2c(-c3nc4cc(F)c(O[C@H]5CCC[C@H]5OC(=O)Nc5cncc(C#N)c5)cc4s3)cc(C)cc2n1` [Example 34], the IC50 under setting [2] worked out at 1.6 nM.

Regarding `COc1cnc2c(-c3nc4cc(F)c(O[C@@H]5CN(S(C)(=O)=O)CC[C@@H]5OC(=O)Nc5cnc(C)nc5)cc4s3)cc(C)cc2n1` (racemic) [Example 95, rac-cis-3-((5-fluoro-2-(2-methoxy-7-methylquinoxalin-5-yl)benzo[d]thiazol-6-yl)oxy)-1-(methylsulfonyl)piperidin-4-yl (2-methylpyrimidin-5-yl)carbamate], the IC50 under setting [1] was found to be 72 nM.

For the compound `COc1ccc(NC(=O)O[C@@H]2CCC[C@@H]2Oc2cc3sc(-c4cc(C)cc5nc(OC)cnc45)nc3cc2F)cc1` [Example 25], the IC50 under setting [2] turned out to be 1.3 nM.
